The record followed here is US20220186063A1, “BEVERAGE STRAW COATED WITH AN ACTIVE COMPOUND AND METHOD OF MANUFACTURING” (priority 2020, published 2022).

A short description of the series: Release of THC from straw coating as water is drawn through the straw (Example 5). It is filed as physicochemical. The following applies: after 220 ml of water passes through the straw over 30 minutes; composite of six straws. The method, then: A study was performed to determine how long it takes for […] to be released from the coating as a liquid is drawn through the coated straw, and to determine how much liquid is required to achieve the full dose of the active ingredient.
The volume of dispersion required to achieve a 10 mg dose of THC was calculated. A pipette was calibrated to ensure that it dispenses the correct amount of dispersion to achieve the desired dose, and then it was loaded with the appropriate amount of the dispersion.
The calculated amount of dispersion was injected using the pipette into PFTA sugarcane straws. The dispersion was allowed to gradually coat the inside of each straw by arranging them vertically. Care was taken to not allow the dispersion to come out of the bottom of the straws.
Straws were dried by taping them horizontally to a tray using food-grade mylar and placing the tray into a convection oven at 55° C. for approximately 60 minutes or until dispersion was visibly dry. Straws were checked every 30 minutes. Once the straws were dry, they were removed from the oven and allowed to cool.
For each straw, a syringe was affixed to the end of a prepared coated straw. The opposing end of the straw was placed in a beaker of deionized water. […]

With `CCCCCc1cc(O)c2c(c1)OC(C)(C)[C@@H]1CCC(C)=C[C@@H]21` [THC, (6aR,10aR)-6,6,9-trimethyl-3-pentyl-6a,7,8,10a-tetrahydro-6H-benzo[c]chromen-1-ol], the “THC released from the coating” value is on record as “approximately 60%”.
